Measured values reported in patent US9085555B2, “Complement pathway modulators and uses thereof” (priority 2011, dated 2015).

molecular target: Factor D (Homo sapiens (Human), UniProt P00746); assay: biochemical; assay type: biochemical; conditions: read-out: IC50
Sequence (P00746 26-253): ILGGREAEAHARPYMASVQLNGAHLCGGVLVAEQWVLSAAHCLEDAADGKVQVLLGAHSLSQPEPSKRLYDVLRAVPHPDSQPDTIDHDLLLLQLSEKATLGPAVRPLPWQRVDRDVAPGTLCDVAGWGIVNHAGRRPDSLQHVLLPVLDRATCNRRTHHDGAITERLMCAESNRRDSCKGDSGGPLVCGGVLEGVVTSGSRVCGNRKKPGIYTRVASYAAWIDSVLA

Row | Compound | IC50
1 | CC[C@H](C)[C@H](NC(=O)[C@@H]1C[C@@H](F)CN1C(=O)Nc1cn(C(N)=O)c2ccccc12)C(=O)O [Example 25, (2S,3S)-2-{[(2S,4R)-1-(1-Carbamoyl-1H-indol-3-ylcarbamoyl)-4-fluoro-pyrrolidine-2-carbonyl]-amino}-3-methyl-pentanoic acid] | 6.75 µM
2 | NC(=O)n1cc(NC(=O)N2C[C@@H](N)C[C@H]2C(=O)NCc2cccc(Cl)c2F)c2ccccc21 [Example 26, (2S,4S)-4-Amino-pyrrolidine-1,2-dicarboxylic acid 1-[(1-carbamoyl-1H-indol-3-yl)-amide]2-(3-chloro-2-fluoro-benzylamide)] | 0.025 µM
3 | NC(=O)n1cc(NC(=O)N2C[C@@H](N)C[C@H]2C(=O)Nc2ccccc2)c2ccccc21 [Example 27, (2S,4S)-4-Amino-pyrrolidine-1,2-dicarboxylic acid 1-[(1-carbamoyl-1H-indol-3-yl)-amide] 2-phenylamide] | 8.3 µM
4 | NC(=O)n1cc(NC(=O)N2C[C@@H](N)C[C@H]2C(=O)NCc2ccccc2)c2ccccc21 [Example 28, (2S,4S)-4-Amino-pyrrolidine-1,2-dicarboxylic acid 2-benzylamide 1-[(1-carbamoyl-1H-indol-3-yl)-amide]] | 2.52 µM
5 | NC(=O)n1cc(NC(=O)N2C[C@@H](N)C[C@H]2C(=O)NCc2cccc(Cl)c2)c2ccccc21 [Example 29, (2S,4S)-4-Amino-pyrrolidine-1,2-dicarboxylic acid 1-[(1-carbamoyl-1H-indol-3-yl)-amide] 2-(3-chloro-benzylamide)] | 0.588 µM
6 | Cc1cccc(CNC(=O)[C@@H]2C[C@H](N)CN2C(=O)Nc2cn(C(N)=O)c3ccccc23)c1 [Example 30, (2S,4S)-4-Amino-pyrrolidine-1,2-dicarboxylic acid 1-[(1-carbamoyl-1H-indol-3-yl)-amide] 2-(3-methyl-benzylamide)] | 2.7 µM
7 | NC(=O)n1cc(NC(=O)N2C[C@@H](N)C[C@H]2C(=O)NCc2cccc(C(F)(F)F)c2)c2ccccc21 [Example 31, (2S,4S)-4-Amino-pyrrolidine-1,2-dicarboxylic acid 1-[(1-carbamoyl-1H-indol-3-yl)-amide] 2-(3-trifluoromethyl-benzylamide)] | 12.2 µM
8 | NC(=O)n1cc(NC(=O)N2C[C@@H](N)C[C@H]2C(=O)NCc2cccc(F)c2)c2ccccc21 [Example 32, (2S,4S)-4-Amino-pyrrolidine-1,2-dicarboxylic acid 1-[(1-carbamoyl-1H-indol-3-yl)-amide] 2-(3-fluoro-benzylamide)] | 3.35 µM
9 | N#Cc1cccc(CNC(=O)[C@@H]2C[C@H](N)CN2C(=O)Nc2cn(C(N)=O)c3ccccc23)c1 [Example 33, (2S,4S)-4-Amino-pyrrolidine-1,2-dicarboxylic acid 1-[(1-carbamoyl-1H-indol-3-yl)-amide] 2-(3-cyano-benzylamide)] | 24.1 µM
10 | NC(=O)n1cc(NC(=O)N2C[C@@H](N)C[C@H]2C(=O)NCc2cccc(Br)c2)c2ccccc21 [Example 34, (2S,4S)-4-Amino-pyrrolidine-1,2-dicarboxylic acid 2-(3-bromo-benzylamide) 1-[(1-carbamoyl-1H-indol-3-yl)-amide]] | 0.09 µM
11 | NC(=O)n1cc(NC(=O)N2C[C@@H](N)C[C@H]2C(=O)NCc2cccc(O)c2)c2ccccc21 [Example 35, (2S,4S)-4-Amino-pyrrolidine-1,2-dicarboxylic acid 1-[(1-carbamoyl-1H-indol-3-yl)-amide] 2-(3-hydroxy-benzylamide)] | 2.85 µM
12 | COc1cccc(CNC(=O)[C@@H]2C[C@H](N)CN2C(=O)Nc2cn(C(N)=O)c3ccccc23)c1 [Example 36, (2S,4S)-4-Amino-pyrrolidine-1,2-dicarboxylic acid 1-[(1-carbamoyl-1H-indol-3-yl)-amide] 2-(3-methoxy-benzylamide)] | 3.25 µM
13 | NC(=O)n1cc(NC(=O)N2C[C@@H](N)C[C@H]2C(=O)NCc2cccc(OC(F)(F)F)c2)c2ccccc21 [Example 37, (2S,4S)-4-Amino-pyrrolidine-1,2-dicarboxylic acid 1-[(1-carbamoyl-1H-indol-3-yl)-amide] 2-(3-trifluoromethoxy-benzylamide)] | 22 µM
14 | NC(=O)n1cc(NC(=O)N2C[C@@H](N)C[C@H]2C(=O)NCc2cccc(Oc3ccccc3)c2)c2ccccc21 [Example 38, (2S,4S)-4-Amino-pyrrolidine-1,2-dicarboxylic acid 1-[(1-carbamoyl-1H-indol-3-yl)-amide] 2-(3-phenoxy-benzylamide)] | 6.3 µM
15 | NC(=O)n1cc(NC(=O)N2C[C@@H](N)C[C@H]2C(=O)NCc2cccc(-c3ccccc3)c2)c2ccccc21 [Example 39, (2S,4S)-4-Amino-pyrrolidine-1,2-dicarboxylic acid 2-[(biphenyl-3-ylmethyl)-amide] 1-[(1-carbamoyl-1H-indol-3-yl)-amide]] | 1.05 µM
16 | NC(=O)n1cc(NC(=O)N2C[C@@H](N)C[C@H]2C(=O)NCc2cccc(-n3cccc3)c2)c2ccccc21 [Example 40, (2S,4S)-4-Amino-pyrrolidine-1,2-dicarboxylic acid 1-[(1-carbamoyl-1H-indol-3-yl)-amide] 2-(3-pyrrol-1-yl-benzylamide)] | 11.2 µM

Row | Compound | IC50
17 | NC(=O)n1cc(NC(=O)N2C[C@@H](N)C[C@H]2C(=O)NCc2cccc(-c3ccc(Cl)s3)c2)c2ccccc21 [Example 41, (2S,4S)-4-Amino-pyrrolidine-1,2-dicarboxylic acid 1-[(1-carbamoyl-1H-indol-3-yl)-amide] 2-[3-(5-chloro-thiophen-2-yl)-benzylamide]] | 3.2 µM
18 | NC(=O)n1cc(NC(=O)N2C[C@@H](N)C[C@H]2C(=O)NCc2ccc(-c3ccc(Cl)s3)s2)c2ccccc21 [Example 42, (2S,4S)-4-Amino-pyrrolidine-1,2-dicarboxylic acid 1-[(1-carbamoyl-1H-indol-3-yl)-amide] 2-[(5′-chloro-[2,2′]bithiophenyl-5-ylmethyl)-amide]] | 2.85 µM
19 | Cc1ccc(CNC(=O)[C@@H]2C[C@H](N)CN2C(=O)Nc2cn(C(N)=O)c3ccccc23)cc1 [Example 43, (2S,4S)-4-Amino-pyrrolidine-1,2-dicarboxylic acid 1-[(1-carbamoyl-1H-indol-3-yl)-amide] 2-(4-methyl-benzylamide)] | 7.75 µM
20 | NC(=O)n1cc(NC(=O)N2C[C@@H](N)C[C@H]2C(=O)NCc2ccc(C(F)(F)F)cc2)c2ccccc21 [Example 45, (2S,4S)-4-Amino-pyrrolidine-1,2-dicarboxylic acid 1-[(1-carbamoyl-1H-indol-3-yl)-amide] 2-(4-trifluoromethyl-benzylamide)] | 22.5 µM
21 | NC(=O)n1cc(NC(=O)N2C[C@@H](N)C[C@H]2C(=O)NCc2ccc(OC(F)(F)F)cc2)c2ccccc21 [Example 46, (2S,4S)-4-Amino-pyrrolidine-1,2-dicarboxylic acid 1-[(1-carbamoyl-1H-indol-3-yl)-amide] 2-(4-trifluoromethoxy-benzylamide)] | 22.8 µM
22 | NC(=O)n1cc(NC(=O)N2C[C@@H](N)C[C@H]2C(=O)NCc2ccc(O)cc2)c2ccccc21 [Example 47, (2S,4S)-4-Amino-pyrrolidine-1,2-dicarboxylic acid 1-[(1-carbamoyl-1H-indol-3-yl)-amide] 2-(4-hydroxy-benzylamide)] | 8.95 µM
23 | NC(=O)n1cc(NC(=O)N2C[C@@H](N)C[C@H]2C(=O)NCc2ccccc2O)c2ccccc21 [Example 48, (2S,4S)-4-Amino-pyrrolidine-1,2-dicarboxylic acid 1-[(1-carbamoyl-1H-indol-3-yl)-amide] 2-(2-hydroxy-benzylamide)] | 7.5 µM
24 | NC(=O)n1cc(NC(=O)N2C[C@@H](N)C[C@H]2C(=O)NCc2ccccc2F)c2ccccc21 [Example 49, (2S,4S)-4-Amino-pyrrolidine-1,2-dicarboxylic acid 1-[(1-carbamoyl-1H-indol-3-yl)-amide] 2-(2-fluoro-benzylamide)] | 0.9 µM
25 | NC(=O)n1cc(NC(=O)N2C[C@@H](N)C[C@H]2C(=O)NCc2ccccc2Cl)c2ccccc21 [Example 50, (2S,4S)-4-Amino-pyrrolidine-1,2-dicarboxylic acid 1-[(1-carbamoyl-1H-indol-3-yl)-amide] 2-(2-chloro-benzylamide)] | 21.6 µM
26 | NC(=O)n1cc(NC(=O)N2C[C@@H](N)C[C@H]2C(=O)NCc2ccccc2-c2ccccc2)c2ccccc21 [Example 51, (2S,4S)-4-Amino-pyrrolidine-1,2-dicarboxylic acid 2-[(biphenyl-2-ylmethyl)-amide] 1-[(1-carbamoyl-1H-indol-3-yl)-amide]] | 8.5 µM
27 | NC(=O)n1cc(NC(=O)N2C[C@@H](N)C[C@H]2C(=O)NCc2cccc(F)c2F)c2ccccc21 [Example 52, (2S,4S)-4-Amino-pyrrolidine-1,2-dicarboxylic acid 1-[(1-carbamoyl-1H-indol-3-yl)-amide] 2-(2,3-difluoro-benzylamide)] | 0.4 µM
28 | COc1ccc(Cl)cc1CNC(=O)[C@@H]1C[C@H](N)CN1C(=O)Nc1cn(C(N)=O)c2ccccc12 [Example 53, (2S,4S)-4-Amino-pyrrolidine-1,2-dicarboxylic acid 1-[(1-carbamoyl-1H-indol-3-yl)-amide] 2-(5-chloro-2-methoxy-benzylamide)] | 1.75 µM
29 | COc1ccc(CNC(=O)[C@@H]2C[C@H](N)CN2C(=O)Nc2cn(C(N)=O)c3ccccc23)cc1Cl [Example 54, (2S,4S)-4-Amino-pyrrolidine-1,2-dicarboxylic acid 1-[(1-carbamoyl-1H-indol-3-yl)-amide] 2-(3-chloro-4-methoxy-benzylamide)] | 1.85 µM
30 | NC(=O)n1cc(NC(=O)N2C[C@@H](N)C[C@H]2C(=O)NCc2cc(Cl)ccc2F)c2ccccc21 [Example 55, (2S,4S)-4-Amino-pyrrolidine-1,2-dicarboxylic acid 1-[(1-carbamoyl-1H-indol-3-yl)-amide] 2-(5-chloro-2-fluoro-benzylamide)] | 0.125 µM
31 | NC(=O)n1cc(NC(=O)N2C[C@@H](N)C[C@H]2C(=O)NCc2ccc(F)c(Cl)c2)c2ccccc21 [Example 56, (2S,4S)-4-Amino-pyrrolidine-1,2-dicarboxylic acid 1-[(1-carbamoyl-1H-indol-3-yl)-amide] 2-(3-chloro-4-fluoro-benzylamide)] | 1.95 µM
